Data as given in article PMC9611727, “Optimization of a Novel Mandelamide-Derived Pyrrolopyrimidine Series of PERK Inhibitors” (Pharmaceutics, 2022).
pIC50: −log10 of the molar value.

How the values were obtained:
GCN2 = target: T1, GCN2 (Homo sapiens, UniProt Q9P2K8); assay: ISR kinase cell-free biochemical assay (Carna), GCN2; details: ATP 150 µM
T1 construct: purchased Carna 05-153
Protocol: (§1) In brief, 26 was dissolved in DMSO and serially diluted 3-fold to generate concentrations ranging from 10 µM to 0.2 nM in a 384-well plate using a TECAN EVO200 automated liquid handler. 10 nL stock solution was transferred into each well of a 384well assay plate by an Echo550 and an equivalent volume of DMSO was added to the control wells. To each assay well, recombinant protein was suspended in 20 µL reaction buffer (listed below) and incubated at 25 °C for 1.5 h while shaking at 1250 rpm. Following incubation, 10 µL of a FRET dilution buffer including 20 mM EDTA and 4 nM Tb-anti-peIF2a [pSer51] (Invitrogen, Cat# PV4815) was added to each well and incubated at 25 °C for 2 h while shaking at 600 rpm in the dark. Analysis was performed using an Envision Microplate Reader (PerkinElmer).

HRI = target: T2, HRI (Homo sapiens, UniProt Q9BQI3); assay: ISR kinase cell-free biochemical assay (Carna), HRI; details: ATP 30 µM
T2 construct: purchased Carna 05-154
T2 sequence (Q9BQI3 whole entry): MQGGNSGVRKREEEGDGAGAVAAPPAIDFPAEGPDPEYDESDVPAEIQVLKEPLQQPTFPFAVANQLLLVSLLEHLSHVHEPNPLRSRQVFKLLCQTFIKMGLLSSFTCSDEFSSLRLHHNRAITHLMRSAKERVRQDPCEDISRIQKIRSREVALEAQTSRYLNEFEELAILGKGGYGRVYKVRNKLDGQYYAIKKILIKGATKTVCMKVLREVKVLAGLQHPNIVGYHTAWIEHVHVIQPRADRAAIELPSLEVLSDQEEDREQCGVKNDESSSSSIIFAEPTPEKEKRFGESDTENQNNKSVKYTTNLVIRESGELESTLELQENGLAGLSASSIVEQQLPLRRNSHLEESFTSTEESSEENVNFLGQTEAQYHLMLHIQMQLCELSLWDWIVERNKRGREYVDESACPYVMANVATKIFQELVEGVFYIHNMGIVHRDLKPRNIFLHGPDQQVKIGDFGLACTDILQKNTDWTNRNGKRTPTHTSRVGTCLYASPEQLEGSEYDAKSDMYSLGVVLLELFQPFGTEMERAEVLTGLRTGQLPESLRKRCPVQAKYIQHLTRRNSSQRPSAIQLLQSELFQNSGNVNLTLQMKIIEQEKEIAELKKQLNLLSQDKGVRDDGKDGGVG
Protocol: as §1

MV4-11 (FLT3-ITD) = assay: Cell viability assay, MV4-11; assay type: cell-based; details: Homo sapiens
Protocol: (§2) MV-4-11 and EoL-1 were plated at a density 20,000 cells/well in a 96 well plate. Cells were incubated with DMSO, 1 µM docetaxel, or an 8-pt, 2-fold dose response of 26 in quadruplicate. On day 3 and day 7, cells from DMSO-treated wells were counted and cells from all wells were split back so that the DMSO-treated wells matched the original seeding density. Cells were centrifuged in 96 well filter plates (Sigma) and resuspended in fresh compound-containing media.
(§3) On day 10, cells were incubated with alamarBlue™ HS Cell Viability Reagent (Invitogen) (10 µL of alamarBlue in a well of 90 µL media) for 2 hours at 37C/5% CO2. Fluorescence was measured on the EnVision Plate reader (Perkin Elmer) at an ex/em of 560/590 nm. Raw fluorescence values were normalized to positive and negative controls (DMSO, 1 µM docetaxel) to get a % viability. Replicates were averaged and dose responses were plotted on a 4 Parameter Logistic […]
(§4) MV-4-11 cells were plated in 6 well plates overnight in reduced serum media (IMDM + 0.5% FBS). The following day, compound or vehicle were added to the plate for a final DMSO concentration of 0.1% and incubated at 37 C for 2 hours.
(§5) Cells were washed with 1X PBS (Gibco 10010-023), and lysed in RIPA buffer with added inhibitors. Protein concentration was determined using a BCA assay (Thermo Scientific 23225). […]

MOLM-13 (FLT3-ITD) = assay: Cell viability assay, MOLM-13; assay type: cell-based; details: Homo sapiens
p-STAT5 = assay: FLT3-ITD downstream signaling, p-STAT5 western blot in MV4-11 cells; assay type: cell-based; details: Homo sapiens, normalized to Crenolanib, read-out: pSTAT5 IC50
Protocol: as §2, §3, §4, §5

p-ERK = assay: FLT3-ITD downstream signaling, p-ERK western blot in MV4-11 cells; assay type: cell-based; details: Homo sapiens, normalized to Crenolanib, read-out: pERK IC50
Protocol: as §2, §3, §4, §5

T1 sequence (Q9P2K8 whole entry): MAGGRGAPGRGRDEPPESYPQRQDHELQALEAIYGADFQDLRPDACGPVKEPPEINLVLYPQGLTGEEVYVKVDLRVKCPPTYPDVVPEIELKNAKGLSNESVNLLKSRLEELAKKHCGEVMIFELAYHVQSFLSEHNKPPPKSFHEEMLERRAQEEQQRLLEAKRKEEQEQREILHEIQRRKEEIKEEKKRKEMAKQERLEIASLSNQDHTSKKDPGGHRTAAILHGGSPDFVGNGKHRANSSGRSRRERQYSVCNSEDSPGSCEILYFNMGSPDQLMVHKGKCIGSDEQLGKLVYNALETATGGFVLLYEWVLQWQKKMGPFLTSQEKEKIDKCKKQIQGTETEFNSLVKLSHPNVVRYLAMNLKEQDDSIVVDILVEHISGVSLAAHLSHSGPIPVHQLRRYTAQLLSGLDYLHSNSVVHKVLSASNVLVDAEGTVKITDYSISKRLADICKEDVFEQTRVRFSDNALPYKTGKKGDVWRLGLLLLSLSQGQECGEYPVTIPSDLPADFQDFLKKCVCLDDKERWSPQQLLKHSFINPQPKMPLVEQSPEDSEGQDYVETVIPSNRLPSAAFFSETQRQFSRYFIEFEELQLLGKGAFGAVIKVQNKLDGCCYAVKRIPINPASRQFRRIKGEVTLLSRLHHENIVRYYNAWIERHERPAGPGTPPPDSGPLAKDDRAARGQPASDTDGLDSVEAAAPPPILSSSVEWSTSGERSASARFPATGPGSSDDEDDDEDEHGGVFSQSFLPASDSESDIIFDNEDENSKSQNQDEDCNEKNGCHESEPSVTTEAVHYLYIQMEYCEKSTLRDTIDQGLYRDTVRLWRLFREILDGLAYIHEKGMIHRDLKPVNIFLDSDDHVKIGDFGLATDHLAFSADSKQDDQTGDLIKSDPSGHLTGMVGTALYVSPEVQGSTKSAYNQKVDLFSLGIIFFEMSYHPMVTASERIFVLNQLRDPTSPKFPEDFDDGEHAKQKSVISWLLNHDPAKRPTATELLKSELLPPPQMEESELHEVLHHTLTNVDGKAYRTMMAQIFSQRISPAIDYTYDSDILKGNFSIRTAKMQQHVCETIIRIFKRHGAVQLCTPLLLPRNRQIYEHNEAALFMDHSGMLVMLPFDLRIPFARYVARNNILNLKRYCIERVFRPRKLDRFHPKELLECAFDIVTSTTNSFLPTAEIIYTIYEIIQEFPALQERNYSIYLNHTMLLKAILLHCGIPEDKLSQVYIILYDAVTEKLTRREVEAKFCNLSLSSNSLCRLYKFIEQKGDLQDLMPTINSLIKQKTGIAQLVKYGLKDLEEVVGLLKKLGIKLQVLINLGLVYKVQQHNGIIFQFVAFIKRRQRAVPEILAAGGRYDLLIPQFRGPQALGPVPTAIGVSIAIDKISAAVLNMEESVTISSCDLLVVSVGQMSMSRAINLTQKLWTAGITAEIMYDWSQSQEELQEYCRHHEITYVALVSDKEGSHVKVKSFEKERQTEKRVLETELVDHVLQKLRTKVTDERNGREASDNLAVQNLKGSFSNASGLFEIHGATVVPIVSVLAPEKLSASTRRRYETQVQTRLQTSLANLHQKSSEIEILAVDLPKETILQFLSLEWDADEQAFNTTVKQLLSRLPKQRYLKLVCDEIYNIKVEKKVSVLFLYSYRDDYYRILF

Cc1nc(N)c2c(-c3ccc(NC(=O)[C@H](O)c4cccc(C(F)(F)F)c4)cc3C)cn(C)c2n1 [Compound 26]
pIC50 (GCN2): < 5.00 | pIC50 (HRI): < 5.00 | pIC50 (MV4-11 (FLT3-ITD)): 6.65 | pIC50 (MOLM-13 (FLT3-ITD)): 6.51 | pIC50 (p-STAT5): 7.19 | pIC50 (p-ERK): 6.26
